In ChEMBL document CHEMBL6096649, “Enantiomeric C-6 fluorinated swainsonine derivatives as highly selective and potent inhibitors of α-mannosidase and α-l-rhamnosidase: Design, synthesis and structure-activity relationship study” (Eur J Med Chem, 2025):
Calls of active or inactive are those of the source. No cut-off for these calls is given here.

Legend:
[1] = Inhibition of Penicillium decumbens alpha-L-rhamnosidase using p-nitrophenyl glycoside as substrate assessed as release of p-nitrophenol by spectrometric analysis
Alpha-mannosidase [2] = molecular target: T1, Alpha-mannosidase (Canavalia ensiformis, UniProt C0HJB3); assay: Inhibition of jack bean alpha-mannosidase using p-nitrophenyl glycoside as substrate assessed as release of p-nitrophenol by spectrometric analysis
T1 sequence (C0HJB3 whole entry): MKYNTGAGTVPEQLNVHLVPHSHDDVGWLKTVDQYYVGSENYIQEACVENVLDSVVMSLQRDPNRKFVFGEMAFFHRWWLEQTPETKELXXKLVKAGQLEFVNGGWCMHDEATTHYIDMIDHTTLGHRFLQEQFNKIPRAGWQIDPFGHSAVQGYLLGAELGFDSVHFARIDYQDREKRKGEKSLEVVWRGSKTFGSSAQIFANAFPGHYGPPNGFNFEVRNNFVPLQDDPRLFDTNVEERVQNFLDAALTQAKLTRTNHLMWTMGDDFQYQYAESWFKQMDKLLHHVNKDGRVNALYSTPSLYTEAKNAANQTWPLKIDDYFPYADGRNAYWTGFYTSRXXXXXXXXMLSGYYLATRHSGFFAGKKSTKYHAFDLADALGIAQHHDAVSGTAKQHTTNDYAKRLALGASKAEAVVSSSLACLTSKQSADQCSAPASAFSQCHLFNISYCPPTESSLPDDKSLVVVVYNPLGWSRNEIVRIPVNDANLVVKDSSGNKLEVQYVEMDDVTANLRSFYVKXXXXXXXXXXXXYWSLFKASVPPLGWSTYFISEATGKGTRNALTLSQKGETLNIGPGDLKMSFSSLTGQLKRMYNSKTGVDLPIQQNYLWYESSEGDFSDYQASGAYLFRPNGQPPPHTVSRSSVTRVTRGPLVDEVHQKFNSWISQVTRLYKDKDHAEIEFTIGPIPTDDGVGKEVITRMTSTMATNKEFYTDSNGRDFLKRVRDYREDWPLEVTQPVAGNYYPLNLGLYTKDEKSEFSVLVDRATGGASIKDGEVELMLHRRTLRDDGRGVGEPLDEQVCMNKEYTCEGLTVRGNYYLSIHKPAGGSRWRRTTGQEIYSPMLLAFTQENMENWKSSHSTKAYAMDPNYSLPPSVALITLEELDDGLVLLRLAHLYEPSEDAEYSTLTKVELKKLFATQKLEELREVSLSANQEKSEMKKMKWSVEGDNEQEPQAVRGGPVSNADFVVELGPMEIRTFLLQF

Escherichia coli = assay: Inhibition of Escherichia coli beta-glucuronidase using p-nitrophenyl glycoside as substrate assessed as release of p-nitrophenol at 1000 uM by spectrometric analysis relative to control
786-0 = assay: Cytotoxicity activity against human 786-0 cells incubated for 48 hrs by CCK-8 assay; assay type: functional, cell-based; details: 786-0, 48 h
Bos taurus [3] = species: Bos taurus; assay: Inhibition of bovine liver beta-glucuronidase using p-nitrophenyl glycoside as substrate assessed as release of p-nitrophenol at 1000 uM by spectrometric analysis relative to control
Bos taurus [4] = species: Bos taurus; assay: Inhibition of bovine liver beta-galactosidase using p-nitrophenyl glycoside as substrate assessed as release of p-nitrophenol at 1000 uM by spectrometric analysis relative to control
[5] = molecular target: Alpha glucosidase (Homo sapiens) (UniProt O43451+P10253+P14410+Q2M2H8); assay: Inhibition of human Alpha-glucosidase using p-nitrophenyl glycoside as substrate assessed as p-nitrophenol release at 1000 uM by spectrometric analysis relative to control; assay type: protein assay
Aspergillus niger = assay: Inhibition of Aspergillus niger amyloglucosidase using p-nitrophenyl glycoside as substrate assessed as release of p-nitrophenol at 1000 uM by spectrometric analysis relative to control
[6] = molecular target: T2, Alpha-mannosidase (Canavalia ensiformis) (UniProt C0HJB3); assay: Inhibition of jack bean alpha-mannosidase using p-nitrophenyl glycoside as substrate assessed as release of p-nitrophenol at 1000 uM by spectrometric analysis relative to control
T2 sequence (whole entry): T1 sequence (C0HJB3 whole entry)

Penicillium decumbens = assay: Inhibition of Penicillium decumbens alpha-L-rhamnosidase using p-nitrophenyl glycoside as substrate assessed as release of p-nitrophenol at 1000 uM by spectrometric analysis relative to control
[7] = molecular target: Alpha-galactosidase (Coffea arabica) (UniProt Q42656); assay: Inhibition of coffee bean alpha-galactosidase using p-nitrophenyl glycoside as substrate assessed as release of p-nitrophenol at 1000 uM by spectrometric analysis relative to control
Alpha-galactosidase (Coffea arabica), sequence (Q42656 16-378 limits assumed): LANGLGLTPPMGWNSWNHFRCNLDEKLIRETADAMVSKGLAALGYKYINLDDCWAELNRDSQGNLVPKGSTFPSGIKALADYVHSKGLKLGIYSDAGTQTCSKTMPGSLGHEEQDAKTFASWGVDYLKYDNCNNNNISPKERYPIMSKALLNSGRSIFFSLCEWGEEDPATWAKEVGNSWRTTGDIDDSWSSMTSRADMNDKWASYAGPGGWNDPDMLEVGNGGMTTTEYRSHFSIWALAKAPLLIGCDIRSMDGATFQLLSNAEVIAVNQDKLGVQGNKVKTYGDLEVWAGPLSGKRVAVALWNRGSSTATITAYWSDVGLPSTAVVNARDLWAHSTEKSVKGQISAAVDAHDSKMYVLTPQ

Rattus norvegicus = species: Rattus norvegicus; assay: Inhibition of rat intestinal Alpha-glucosidase using p-nitrophenyl glycoside as substrate assessed as p-nitrophenol release at 1000 uM by spectrometric analysis relative to control
Sus scrofa = species: Sus scrofa; assay: Inhibition of porcine kidney Alpha alpha-trehalase using p-nitrophenyl glycoside as substrate assessed as release of p-nitrophenol at 1000 uM by spectrometric analysis relative to control
Bos taurus [8] = species: Bos taurus; assay: Inhibition of bovine liver beta-glucosidase using p-nitrophenyl glycoside as substrate assessed as release of p-nitrophenol at 1000 uM by spectrometric analysis relative to control
Homo sapiens [9] = species: Homo sapiens; assay: Inhibition of human lysosome beta-glucosidase using p-nitrophenyl glycoside as substrate assessed as release of p-nitrophenol at 1000 uM by spectrometric analysis relative to control
CAKI-1 = assay: Cytotoxicity activity against human CAKI-1 cells incubated for 48 hrs by CCK-8 assay; assay type: functional, cell-based; details: CAKI-1, 48 h
[10] = molecular target: Alpha-glucosidase (Saccharomyces cerevisiae S288c) (UniProt P53341+P38158+P07265); assay: Inhibition of yeast Alpha-glucosidase using p-nitrophenyl glycoside as substrate assessed as p-nitrophenol release at 1000 uM by spectrometric analysis relative to control; assay type: protein assay
Helix pomatia = assay: Inhibition of snail beta-mannosidase using p-nitrophenyl glycoside as substrate assessed as release of p-nitrophenol at 1000 uM by spectrometric analysis relative to control
HepG2 = assay: Cytotoxicity activity against human HepG2 cells incubated for 48 hrs by CCK-8 assay; assay type: functional, cell-based; details: HepG2, 48 h
Prunus dulcis = assay: Inhibition of almond Beta-glucosidase using p-nitrophenyl glycoside as substrate assessed as release of p-nitrophenol at 1000 uM by spectrometric analysis relative to control
Oryza sativa = assay: Inhibition of rice Alpha-glucosidase using p-nitrophenyl glycoside as substrate assessed as p-nitrophenol release at 1000 uM by spectrometric analysis relative to control
[11] = Inhibition of human liver Alpha-mannosidase
Alpha-mannosidase [12] = molecular target: T1, Alpha-mannosidase; assay: Inhibition of jack bean Alpha-mannosidase using p-nitrophenyl glycoside as substrate
Homo sapiens [13] = species: Homo sapiens; assay: Inhibition of human liver Alpha-mannosidase relative to control

Compound: C[C@@H]1[C@H](O)[C@H]2[C@@H](O)[C@@H](O)CN2C[C@@]1(C)O
- IC50 [1]: 21.3 µM

Compound: CC(C)(C)c1ccc(CC[C@H]2CC[C@@H](O)[C@@H]3[C@H](O)[C@H](O)CN23)cc1
- IC50 (Alpha-mannosidase [2]): 0.42 µM

Compound: CC(C)(C)c1ccc(CC[C@@H]2CC[C@@H](O)[C@@H]3[C@H](O)[C@H](O)CN23)cc1
- IC50 (Alpha-mannosidase [2]): 3.7 µM

Compound: CC(C)(C)c1ccc(C(=O)C[C@@H]2CC[C@@H](O)[C@@H]3[C@H](O)[C@H](O)CN23)cc1
- IC50 (Alpha-mannosidase [2]): 2.54 µM

Compound: O[C@H]1[C@H]2[C@H](O)CC(F)(F)CN2C[C@H]1O
- inhibition (Escherichia coli): 0%
- IC50 (786-0): > 200 µM
- inhibition (Bos taurus [3]): 16.7%
- inhibition (Bos taurus [4]): 13.3%
- inhibition [5]: 8.9%
- inhibition (Aspergillus niger): 2.7%
- inhibition [6]: 0.44%
- inhibition (Penicillium decumbens): 20.4%
- inhibition [7]: 0.6%
- inhibition (Rattus norvegicus): 11.6%
- inhibition (Sus scrofa): 0%
- inhibition (Bos taurus [8]): 23.7%
- inhibition (Homo sapiens [9]): 0%
- IC50 (CAKI-1): > 200 µM
- inhibition [10]: 0%
- inhibition (Helix pomatia): 40%
- IC50 (HepG2): > 200 µM
- inhibition (Prunus dulcis): 3.2%

Compound: O[C@H]1[C@H]2[C@H](O)C[C@H](F)CN2C[C@H]1O
- inhibition (Escherichia coli): 11.3%
- IC50 (786-0): > 200 µM
- inhibition (Bos taurus [3]): 6.8%
- inhibition (Bos taurus [4]): 0%
- inhibition [5]: 6.6%
- inhibition (Aspergillus niger): 6.4%
- inhibition [6]: 0.78%
- inhibition (Penicillium decumbens): 14.4%
- inhibition [7]: 0%
- inhibition (Rattus norvegicus): 19.1%
- inhibition (Sus scrofa): 4.1%
- inhibition (Bos taurus [8]): 2.6%
- inhibition (Homo sapiens [9]): 6%
- IC50 (CAKI-1): > 200 µM
- inhibition [10]: 1.7%
- inhibition (Helix pomatia): 5%
- IC50 (HepG2): > 200 µM
- inhibition (Prunus dulcis): 2.1%

Compound: O[C@@H]1[C@@H]2[C@@H](O)[C@H](O)[C@H](O)CN2C[C@@H]1O
- IC50 [1]: 530 µM

Compound: O[C@@H]1[C@@H]2[C@@H](O)CCCN2C[C@@H]1O
- inhibition (Escherichia coli): 11.3%
- IC50 [1]: 0.13 µM
- inhibition (Bos taurus [3]): 0%
- inhibition (Bos taurus [4]): 48.3%
- inhibition (Oryza sativa): 0%
- inhibition [5]: 3.4%
- inhibition (Aspergillus niger): 17.7%
- inhibition [6]: 7.2%
- inhibition (Penicillium decumbens): 0.26%
- inhibition [7]: 0%
- inhibition (Rattus norvegicus): 26.5%
- inhibition (Bos taurus [8]): 33%
- inhibition (Homo sapiens [9]): 4.8%
- inhibition [10]: 0%
- inhibition (Helix pomatia): 0%
- inhibition (Prunus dulcis): 7.4%

Compound: NCC/N=C1/N[C@H](CO)[C@@H](O)[C@@H](O)[C@@H]1O
- Ki [11]: 6 µM
- Ki (Alpha-mannosidase [12]): 0.006 µM

Compound: O[C@H]1[C@H]2[C@H](O)C[C@@H](F)CN2C[C@H]1O
- inhibition (Escherichia coli): 0%
- IC50 (786-0): > 200 µM
- inhibition (Bos taurus [3]): 2.6%
- inhibition (Bos taurus [4]): 0.8%
- inhibition [5]: 5.6%
- inhibition (Aspergillus niger): 11.8%
- inhibition [6]: 0.5%
- inhibition (Penicillium decumbens): 8.3%
- inhibition [7]: 0%
- inhibition (Rattus norvegicus): 22.8%
- inhibition (Sus scrofa): 2.5%
- inhibition (Bos taurus [8]): 5.1%
- inhibition (Homo sapiens [9]): 0.4%
- IC50 (CAKI-1): > 200 µM
- inhibition [10]: 2.2%
- inhibition (Helix pomatia): 0%
- IC50 (HepG2): > 200 µM
- inhibition (Prunus dulcis): 0.5%

Compound: OC[C@H]1O[C@H](O[C@H]2[C@H]3[C@H](O)CCCN3C[C@H]2O)[C@H](O)[C@@H](O)[C@@H]1O
- inhibition (Homo sapiens [13]): inactive

Compound: O=C(C[C@H]1CC[C@@H](O)[C@@H]2[C@H](O)[C@H](O)CN12)c1ccccc1
- IC50 (Alpha-mannosidase [2]): 0.51 µM

Compound: CCCC[C@H]1CCN2C[C@@H](O)[C@@H](O)[C@H]2[C@@H]1O
- inhibition (Homo sapiens [13]): inactive

Compound: C[C@@H]1C[C@H](O)[C@H]2[C@@H](O)[C@@H](O)CN2C1
- IC50 [1]: 0.034 µM

Compound: O[C@H]1[C@H]2[C@H](O)C[C@H](CCOCc3ccccc3)CN2C[C@H]1O
- IC50 (Alpha-mannosidase [2]): 230 µM
